Measurements: PubChem BioAssay (NCI)
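Five concentrations, 48 hours, 96-well plates. GI50: concentration for 50% inhibition of growth. TGI marks complete inhibition of growth.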

Tests used:
Assay in all cases: NCI tumour cell line growth inhibition, 48 h
[1] = system: CCRF-CEM leukemia
[2] = system: LOX IMVI melanoma
[3] = system: K-562 leukemia
[4] = system: SW-620 colon
[5] = system: SK-MEL-2 melanoma
[6] = system: HT29 colon
[7] = system: SNB-75 CNS
[8] = system: EKVX NSCLC
[9] = system: UO-31 renal
[10] = system: OVCAR-5 ovarian
[11] = system: A498 renal
[12] = system: RPMI-8226 leukemia
[13] = system: DU-145 prostate
[14] = system: HL-60(TB) leukemia
[15] = system: SK-OV-3 ovarian
[16] = system: HCT-116 colon
[17] = system: HCC-2998 colon
[18] = system: IGROV1 ovarian
[19] = system: A549 NSCLC
[20] = system: SF-539 CNS
[21] = system: NCI-H23 lung
[22] = system: COLO 205 colon
[23] = system: PC-3 prostate
[24] = system: UACC-257 melanoma
[25] = system: ACHN renal
[26] = system: OVCAR-4 ovarian
[27] = system: NCI-H460 lung
[28] = system: CAKI-1 renal
[29] = system: U251 CNS
[30] = system: OVCAR-8 ovarian
[31] = system: HOP-92 NSCLC
[32] = system: MDA-MB-231 breast
[33] = system: SF-268 CNS
[34] = system: OVCAR-3 ovarian
[35] = system: KM12 colon
[36] = system: M14 melanoma
[37] = system: HCT-15 colon
[38] = system: BT-549 breast
[39] = system: TK-10 renal
[40] = system: RXF 393 renal
[41] = system: 786-0 renal
[42] = system: SK-MEL-5 melanoma
[43] = system: HS 578T breast
[44] = system: MOLT-4 leukemia
[45] = system: SN12C renal
[46] = system: SNB-19 CNS
[47] = system: MCF7 breast
[48] = system: MDA-MB-435
[49] = system: T-47D breast
[50] = system: NCI-H226 lung
[51] = system: MDA-MB-468 breast
[52] = system: SR leukemia
[53] = system: UACC-62 melanoma
[54] = system: HOP-62 NSCLC
[55] = system: SK-MEL-28 melanoma
[56] = system: NCI-H522 lung
[57] = system: MALME-3M melanoma
[58] = system: SF-295 CNS

`COc1cc(CNC(=O)/C=C/c2ccc3c(c2)OCO3)ccc1OCc1cn(-c2cccc(C(F)(F)F)c2)nn1` was tested. Which GI50 [1] did it give?
Its GI50 is 32.1 µM.

What about the TGI [1] of the same compound?
The TGI was greater than 100 µM.

And the GI50 [2]?
The GI50 was 4.75 µM.

What about the TGI [2] of the same compound?
Its TGI is 19 µM.

What about the GI50 [3] of the same compound?
The GI50 was 17.5 µM.

What about the TGI [3] of the same compound?
Its TGI is greater than 100 µM.

What about the GI50 [4] of the same compound?
Its GI50 is 5.86 µM.

And the TGI [4]?
The TGI was 22.5 µM.

And the GI50 [5]?
Its GI50 is 10.1 µM.

What about the TGI [5] of the same compound?
Its TGI is 22.8 µM.

And the GI50 [6]?
The GI50 was 14.9 µM.

What about the TGI [6] of the same compound?
The TGI was 36.1 µM.

And the GI50 [7]?
Its GI50 is 1.62 µM.

What about the TGI [7] of the same compound?
The TGI was 5.37 µM.

And the GI50 [8]?
Its GI50 is 13.1 µM.

What about the TGI [8] of the same compound?
Its TGI is 29.5 µM.

What about the GI50 [9] of the same compound?
Its GI50 is 2.6 µM.

What about the TGI [9] of the same compound?
The TGI was 10.1 µM.

What about the GI50 [10] of the same compound?
Its GI50 is 14.5 µM.

And the TGI [10]?
Its TGI is 31.8 µM.

What about the GI50 [11] of the same compound?
The GI50 was 5.32 µM.

What about the TGI [11] of the same compound?
The TGI was 19.1 µM.

And the GI50 [12]?
Its GI50 is 18.5 µM.

What about the TGI [12] of the same compound?
Its TGI is greater than 100 µM.

And the GI50 [13]?
Its GI50 is 10.7 µM.

What about the TGI [13] of the same compound?
The TGI was 28.4 µM.

And the GI50 [14]?
The GI50 was 23.6 µM.

What about the TGI [14] of the same compound?
The TGI was greater than 100 µM.

And the GI50 [15]?
The GI50 was 16.3 µM.

What about the TGI [15] of the same compound?
Its TGI is 36.5 µM.

What about the GI50 [16] of the same compound?
The GI50 was 3.83 µM.

And the TGI [16]?
The TGI was 14.9 µM.

What about the GI50 [17] of the same compound?
The GI50 was 10.1 µM.

What about the TGI [17] of the same compound?
Its TGI is 23.7 µM.

What about the GI50 [18] of the same compound?
The GI50 was 15.3 µM.

What about the TGI [18] of the same compound?
Its TGI is 32.7 µM.

And the GI50 [19]?
The GI50 was 3.71 µM.

What about the TGI [19] of the same compound?
The TGI was 15.9 µM.

And the GI50 [20]?
Its GI50 is 3.54 µM.

And the TGI [20]?
Its TGI is 12.7 µM.

And the GI50 [21]?
The GI50 was 10.5 µM.

What about the TGI [21] of the same compound?
The TGI was 23.9 µM.

What about the GI50 [22] of the same compound?
The GI50 was 10.4 µM.

And the TGI [22]?
The TGI was 25 µM.

And the GI50 [23]?
The GI50 was 13.4 µM.

What about the TGI [23] of the same compound?
Its TGI is 29.3 µM.

And the GI50 [24]?
The GI50 was 10.8 µM.

And the TGI [24]?
Its TGI is 25.4 µM.

What about the GI50 [25] of the same compound?
The GI50 was 5.24 µM.

And the TGI [25]?
The TGI was 18.5 µM.

What about the GI50 [26] of the same compound?
Its GI50 is 2.9 µM.

And the TGI [26]?
Its TGI is 10.3 µM.

And the GI50 [27]?
The GI50 was 3.28 µM.

What about the TGI [27] of the same compound?
The TGI was 11.6 µM.

And the GI50 [28]?
The GI50 was 5.39 µM.

What about the TGI [28] of the same compound?
Its TGI is 18.5 µM.

And the GI50 [29]?
Its GI50 is 4.5 µM.

What about the TGI [29] of the same compound?
The TGI was 17.6 µM.

And the GI50 [30]?
Its GI50 is 3.91 µM.

And the TGI [30]?
Its TGI is 15.4 µM.

And the GI50 [31]?
Its GI50 is 2.61 µM.

What about the TGI [31] of the same compound?
The TGI was 8.28 µM.

And the GI50 [32]?
Its GI50 is 4.58 µM.

What about the TGI [32] of the same compound?
Its TGI is 17.1 µM.

What about the GI50 [33] of the same compound?
Its GI50 is 12 µM.

What about the TGI [33] of the same compound?
The TGI was 34.8 µM.

And the GI50 [34]?
Its GI50 is 3.31 µM.

What about the TGI [34] of the same compound?
Its TGI is 11.6 µM.

What about the GI50 [35] of the same compound?
Its GI50 is 15.5 µM.

What about the TGI [35] of the same compound?
The TGI was 43 µM.

What about the GI50 [36] of the same compound?
Its GI50 is 10.4 µM.

What about the TGI [36] of the same compound?
The TGI was 23.3 µM.

And the GI50 [37]?
Its GI50 is 5.19 µM.

What about the TGI [37] of the same compound?
Its TGI is 26.6 µM.

And the GI50 [38]?
Its GI50 is 4.83 µM.

And the TGI [38]?
Its TGI is 19.3 µM.

And the GI50 [39]?
Its GI50 is 13.5 µM.

And the TGI [39]?
The TGI was 32.2 µM.

What about the GI50 [40] of the same compound?
Its GI50 is 2.93 µM.

And the TGI [40]?
The TGI was 9.87 µM.

What about the GI50 [41] of the same compound?
Its GI50 is 6.2 µM.

What about the TGI [41] of the same compound?
The TGI was 19.2 µM.

And the GI50 [42]?
The GI50 was 4.68 µM.

What about the TGI [42] of the same compound?
Its TGI is 16.4 µM.

What about the GI50 [43] of the same compound?
Its GI50 is 4.39 µM.

And the TGI [43]?
The TGI was 24.8 µM.

And the GI50 [44]?
The GI50 was 10.1 µM.

And the TGI [44]?
The TGI was greater than 100 µM.

What about the GI50 [45] of the same compound?
The GI50 was 9.04 µM.

And the TGI [45]?
The TGI was 27.6 µM.

What about the GI50 [46] of the same compound?
Its GI50 is 13.2 µM.

What about the TGI [46] of the same compound?
Its TGI is 27.9 µM.

And the GI50 [47]?
Its GI50 is 4.23 µM.

And the TGI [47]?
Its TGI is 22 µM.

And the GI50 [48]?
The GI50 was 8.25 µM.

And the TGI [48]?
Its TGI is 23.2 µM.

What about the GI50 [49] of the same compound?
Its GI50 is 3.27 µM.

And the TGI [49]?
The TGI was 26.6 µM.

What about the GI50 [50] of the same compound?
The GI50 was 3.38 µM.

What about the TGI [50] of the same compound?
Its TGI is 14.7 µM.

What about the GI50 [51] of the same compound?
The GI50 was 10 µM.

What about the TGI [51] of the same compound?
Its TGI is 22.8 µM.

What about the GI50 [52] of the same compound?
Its GI50 is 21.3 µM.

And the TGI [52]?
The TGI was greater than 100 µM.

What about the GI50 [53] of the same compound?
Its GI50 is 11 µM.

And the TGI [53]?
The TGI was 23.4 µM.

And the GI50 [54]?
Its GI50 is 7.29 µM.

What about the TGI [54] of the same compound?
The TGI was 26 µM.

And the GI50 [55]?
Its GI50 is 8.84 µM.

What about the TGI [55] of the same compound?
The TGI was 21.7 µM.

What about the GI50 [56] of the same compound?
The GI50 was 9.78 µM.

What about the TGI [56] of the same compound?
The TGI was 23.7 µM.

What about the GI50 [57] of the same compound?
The GI50 was 2.44 µM.

And the TGI [57]?
The TGI was 9.61 µM.

What about the GI50 [58] of the same compound?
The GI50 was 4.84 µM.

What about the TGI [58] of the same compound?
The TGI was 17.8 µM.
